Our source for the MIC values is patent US5061794A, “Cephalosporin derivatives, and antibacterial agents” (priority 1986, dated 1991).

The test system of assay [1] is Ps. aeruginosa IF03445. Description: in vitro antibacterial activity, agar plate dilution method (MIC). Format: cell-based, Pseudomonas aeruginosa. Conditions: Pseudomonas aeruginosa, 16 h; Ps. aeruginosa IF03445; 10^6 CFU/ml; read-out: Minimum Inhibitory Concentration (MIC). The procedure: (§1) The in vitro antibacterial activities of the compounds of the present invention against various microorganisms, were measured by the following agar plate dilution method. One platinum loopfull of each test microorganism incubated overnight in Mueller Hinton broth, was inoculated to Mueller Hinton agar (inoculum size: 10^6 CFU/ml). Such culture media containing various antibiotics in various concentrations were prepared. After incubation at 37° C. for 16 hours, the minimum inhibitory concentrations (MIC: μg/ml) were measured.

For assay [2], the system named is Ps. aeruginosa AK 109. Described as above. To be noted: Pseudomonas aeruginosa, AK109, 16 h, read-out: Minimum Inhibitory Concentration (MIC). Format: cell-based, Pseudomonas aeruginosa. The procedure: as §1
Assay [3] relates to E. coli CSH2 (RK1). As to the kind of experiment: microbe, parasite or virus in culture. Format: cell-based. Conditions: Escherichia coli, 16 h, read-out: Minimum Inhibitory Concentration (MIC), *E. coli CSH2 (RK1), lactamase-producing strain; 10^6 CFU/ml. As to the method: as §1
Assay [4] concerns M. morganii GN5407. Description: in vitro antibacterial activity, agar plate dilution method (MIC). To be noted: Morganella morganii, 10^6 CFU/ml. The assay is classed as cell-based. The procedure:
as §1

Assay [5] concerns S. marcescens No. 16-2. The description is as above. Format: cell-based. Conditions: Serratia marcescens, NO.162, 16 h. As to the method:
as §1

Assay [6] deals with E. cloacae 963. Described as above. The assay is classed as cell-based. To be noted: 10^6 CFU/ml. The procedure: as §1
Assay [7] relates to K. pneumoniae PCI-602. The description is as above. The assay is classed as cell-based. To be noted: Klebsiella pneumoniae, PCI602, 16 h, 10^6 CFU/ml. As to the method: as §1
Assay [8] deals with E. cloacae Nek 39. The description is as above. Format: cell-based. To be noted: Enterobacter cloacae, NEK39, 16 h, 10^6 CFU/ml. As to the method:
as §1

Assay [9] concerns P. vulgaris HX-19. The description is as above. The assay is classed as cell-based. To be noted: Proteus vulgaris, HX19, 16 h, P. vulgaris HX-19; 10^6 CFU/ml; read-out: Minimum Inhibitory Concentration (MIC). The procedure: as §1
The subject of assay [10] is S. aureus 209P NIHJ-JC1. Described as above. The assay is classed as cell-based. Conditions: Staphylococcus aureus, 16 h, 10^6 CFU/ml, 37° C., 16 hours. The procedure:
as §1

The subject of assay [11] is S. marcescens IAM 1184. The description is as above. The assay is classed as cell-based. Conditions: Serratia marcescens, IAM1184, 16 h, read-out: Minimum Inhibitory Concentration (MIC). As to the method: as §1
Assay [12] has as its system Ps. cepacia 23. Described as above. To be noted: Burkholderia cepacia, 16 h; Ps. cepacia 23; 10^6 CFU/ml; read-out: Minimum Inhibitory Concentration (MIC). Format: cell-based, Pseudomonas cepacia. As to the method:
as §1

For assay [13], the system named is Ps. aeruginosa AKR17. The assay is described as above. Format: cell-based, Pseudomonas aeruginosa. To be noted: Pseudomonas aeruginosa, 16 h; Ps. aeruginosa AKR17; 10^6 CFU/ml; read-out: Minimum Inhibitory Concentration (MIC). The procedure:
as §1

In assay [14] the test system is A. calcoaceticus No. 4. The assay is described as above. Format: cell-based, Acinetobacter calcoaceticus. To be noted: Acinetobacter calcoaceticus, NO.4, 16 h, 10^6 CFU/ml. As to the method: as §1
The test system of assay [15] is E. coli CSH(RE45). As to the kind of experiment: microbe, parasite or virus in culture. The assay is classed as cell-based. Conditions: Escherichia coli, 16 h, read-out: Minimum Inhibitory Concentration (MIC), *E. coli CSH(RE45), lactamase-producing strain; 10^6 CFU/ml. The procedure: as §1
The test system of assay [16] is E. coli GN5482. As to the kind of experiment: in vitro antibacterial activity, agar plate dilution method (MIC). Format: cell-based. Conditions: Escherichia coli. The procedure: as §1
In assay [17] the test system is E. coli NIHJ JC2. The description is as above. The assay is classed as cell-based. To be noted: Escherichia coli. The procedure:
as §1

The test system of assay [18] is K. oxytoca GN10650. The description is as above. The assay is classed as cell-based. Conditions: Klebsiella oxytoca, 10^6 CFU/ml. As to the method: as §1
Assay [19] has as its system P. vulgaris No. 33. Described as above. The assay is classed as cell-based. Conditions: Proteus vulgaris, NO.33, 16 h, read-out: Minimum Inhibitory Concentration (MIC), *P. vulgaris No. 33, lactamase-producing strain; 10^6 CFU/ml. As to the method: as §1
Assay [20] deals with K. pneumoniae No. 42. The description is as above. Format: cell-based. Conditions: Klebsiella pneumoniae, 10^6 CFU/ml. The procedure:
as §1

[21] abbreviates: Ps. aeruginosa AK 109, 10^6 CFU/ml.
Setting [22] is: *S. marcescens No. 16-2, lactamase-producing strain, 10^6 CFU/ml, read-out: Minimum Inhibitory Concentration (MIC).
The mark [23] stands for this setting: Enterobacter cloacae, 16 h, E. cloacae 963, read-out: Minimum Inhibitory Concentration (MIC).
The mark [24] stands for this setting: *E. cloacae Nek 39, lactamase-producing strain, read-out: Minimum Inhibitory Concentration (MIC).
The mark [25] stands for this setting: S. aureus 209P NIHJ-JC1, read-out: Minimum Inhibitory Concentration (MIC).
Setting [26] is: A. calcoaceticus No. 4, read-out: Minimum Inhibitory Concentration (MIC).
The mark [27] stands for this setting: GN5407, 16 h, read-out: Minimum Inhibitory Concentration (MIC), *M. morganii GN5407, lactamase-producing strain.
Where [28] appears, read: NIHJJC2, 16 h, read-out: Minimum Inhibitory Concentration (MIC), E. coli NIHJ JC2, 10^6 CFU/ml, 37° C.
Setting [29] is: Enterobacter cloacae, 963, 16 h, read-out: Minimum Inhibitory Concentration (MIC), E. cloacae 963.
[30] abbreviates: read-out: Minimum Inhibitory Concentration (MIC), K. pneumoniae PCI-602.
Setting [31] is: NO.42, 16 h, read-out: Minimum Inhibitory Concentration (MIC), *K. pneumoniae No. 42, lactamase-producing strain.
[32] abbreviates: 16 h, *K. oxytoca GN10650, lactamase-producing strain, read-out: Minimum Inhibitory Concentration (MIC).
Where [33] appears, read: read-out: Minimum Inhibitory Concentration (MIC), *E. cloacae Nek 39, lactamase-producing strain.

In brackets after ≈: the same amount, converted by molar mass. Like-named read-outs stand apart in the source and are kept apart here.

Turning to `CO/N=C(\C(=O)N[C@@H]1C(=O)N2C(C(=O)O)=C(COC(C)=O)CS[C@H]12)c1csc(N)n1` [cefotaxime, reference compound], the MIC amounted to 2.5 µg/mL (≈ 5.49 µM) in [1]; 12.5 µg/mL (≈ 27.4 µM) in assay [2] (setting [21]); 0.0125 µg/mL (≈ 0.0274 µM) in [3]; 0.05 µg/mL (≈ 0.11 µM) in [4] (16 h, *M. morganii GN5407, lactamase-producing strain, read-out: Minimum Inhibitory Concentration (MIC)); 6.25 µg/mL (≈ 13.7 µM) in [5] (setting [22]); 0.05 µg/mL (≈ 0.11 µM) in assay [6] (setting [23]). For the same molecule, the MIC in assay [7] (K. pneumoniae PCI-602, read-out: Minimum Inhibitory Concentration (MIC)) was under 0.006 µg/mL; in assay [8] (setting [24]), 1.56 µg/mL (≈ 3.43 µM); in assay [9], under 0.006 µg/mL; in [10] (setting [25]) it was 1.56 µg/mL (≈ 3.43 µM); in [11], 0.0125 µg/mL (≈ 0.0274 µM); in assay [12], 6.25 µg/mL (≈ 13.7 µM).
Consider `CC(C)(O/N=C(\C(=O)N[C@@H]1C(=O)N2C(C(=O)O)=C(CSc3nnc(-c4ccccc4)o3)CS[C@H]12)c1csc(N)n1)C(=O)O` [compound 3, disodium 7β-[2-(2-aminothiazol-4-yl)-2-(1-carboxylate-1-methylethoxyimino)acetamido]3-(5-phenyl-1,3,4-oxadiazol-2-yl) thiomethyl-3-cephem-4-carboxylate, reference compound], for which the MIC is 50 µg/mL in [1]; 50 µg/mL in assay [2] (setting [21]); over 100 µg/mL in assay [13]; 100 µg/mL in assay [14] (setting [26]); 1.56 µg/mL in assay [15]; 1.56 µg/mL in assay [3]. For the same molecule, the MIC in [4] (setting [27]) worked out at 1.56 µg/mL; in assay [16] (GN5482, 16 h, read-out: Minimum Inhibitory Concentration (MIC)), 3.12 µg/mL; in [5] (setting [22]), 25 µg/mL; in assay [17] (setting [28]), 3.12 µg/mL; in assay [6] (setting [29]) it was 6.25 µg/mL; in assay [7] (setting [30]) it was 0.1 µg/mL. The MIC was 3.12 µg/mL in assay [18] (GN10650, 16 h, read-out: Minimum Inhibitory Concentration (MIC), *K. oxytoca GN10650, lactamase-producing strain); 25 µg/mL in assay [8] (setting [24]); 0.39 µg/mL in [19]; under 0.006 µg/mL in [9]; 3.12 µg/mL in assay [20] (setting [31]); 6.25 µg/mL in [10] (read-out: Minimum Inhibitory Concentration (MIC), S. aureus 209P NIHJ-JC1). Besides, the MIC in assay [11] stood at 1.56 µg/mL.
As for `CC(C)(O/N=C(\C(=O)N[C@@H]1C(=O)N2C(C(=O)O)=C(CSc3nnc(-c4ccc(O)cc4)o3)CS[C@H]12)c1csc(N)n1)C(=O)O` [compound 4, disodium 7β-[2-(2-aminothiazol-4-yl)-2-(1-carboxylate-1-methylethoxyimino)acetamido]-3-[5-(4-hydroxyphenyl)-1,3,4-oxadiazol-2-yl]thiomethyl-3-cephem-4-carboxylate, reference compound], the MIC in assay [1] is 25 µg/mL; in [2], 12.5 µg/mL; in assay [13], over 100 µg/mL; in assay [14] (setting [26]) it was 25 µg/mL; in assay [15] it was 0.78 µg/mL; in assay [3], 0.78 µg/mL. The MIC came out at 0.78 µg/mL in assay [4] (setting [27]); 1.56 µg/mL in [16] (16 h, *E. coli GN5482, lactamase-producing strain, 10^6 CFU/ml, read-out: Minimum Inhibitory Concentration (MIC)); 12.5 µg/mL in [5] (read-out: Minimum Inhibitory Concentration (MIC)); 3.12 µg/mL in [17] (NIHJJC2, E. coli NIHJ JC2, 10^6 CFU/ml, 37° C., 16 hours, read-out: Minimum Inhibitory Concentration (MIC)); 3.12 µg/mL in [6] (setting [23]); 0.1 µg/mL in assay [7] (setting [30]). Besides, the MIC in assay [18] (setting [32]) turned out to be 1.56 µg/mL; in [8] (setting [33]) it was 12.5 µg/mL; in assay [19], 0.2 µg/mL; in [9] it was 0.1 µg/mL; in assay [20] (16 h, *K. pneumoniae No. 42, lactamase-producing strain, read-out: Minimum Inhibitory Concentration (MIC)) it was 1.56 µg/mL; in assay [10] (setting [25]), 6.25 µg/mL. The MIC in [11] amounted to 0.78 µg/mL.
For `CON=C(C(=O)NC1C(=O)N2C(C(=O)O)=C(CSc3nc(-c4ccc(OC(C)=O)c(OC(C)=O)c4)cs3)CSC12)c1csc(N)n1` (stereo not drawn) [compound 40, sodium 3-[4-(3,4-diacetoxyphenyl)-thiazol-2-yl]thiomethyl-7β-[2-(2-aminothiazol-4-yl)-2-methoxviminoacetamido]-3-cephem-4-carboxvlate], the MIC in [1] is 1.56 µg/mL; in assay [2], 3.12 µg/mL; in assay [13] it was under 100 µg/mL; in [14] (read-out: Minimum Inhibitory Concentration (MIC), A. calcoaceticus No. 4), 0.78 µg/mL; in assay [15] it was 0.2 µg/mL; in [3], 0.025 µg/mL. Moreover, the MIC in assay [4] (setting [27]) was 0.1 µg/mL; in assay [16] (GN5482, 16 h, read-out: Minimum Inhibitory Concentration (MIC), *E. coli GN5482, lactamase-producing strain, 10^6 CFU/ml) it was 0.78 µg/mL; in [5] (read-out: Minimum Inhibitory Concentration (MIC), *S. marcescens No. 16-2, lactamase-producing strain, 10^6 CFU/ml), 6.25 µg/mL; in assay [17] (setting [28]), 0.2 µg/mL; in assay [6] (setting [29]), 0.05 µg/mL; in assay [7] (setting [30]), under 0.006 µg/mL. The MIC came out at 1.56 µg/mL in assay [18] (setting [32]); 0.39 µg/mL in assay [8] (setting [33]); 0.1 µg/mL in assay [19]; 0.0125 µg/mL in assay [9]; 0.2 µg/mL in assay [20] (setting [31]); 1.56 µg/mL in assay [10] (setting [25]). Further, the MIC in [11] (S. marcescens IAM 1184, 10^6 CFU/ml) came out at 0.1 µg/mL.
